Results on four molecules are retold here after ChEMBL document CHEMBL1149980, “Synthesis of rutaecarpine and cytotoxic analogues” (1995).

Common to all, as to format: functional
Common to all, as to settings: Homo sapiens

In one assay the test system is NCI-H460. As to the kind of experiment: Tested for in vitro cytotoxicity against non-small cell lung cancer cell line NCI-H460.
The next assay deals with CCRF-CEM. The assay can be described thus: Tested for in vitro cytotoxicity against leukemia cell line CCRF-CEM.
The next assay relates to 786-0. The assay can be described thus: Tested for in vitro cytotoxicity against renal cancer cell line 786-0.
The next assay concerns A549. The assay can be described thus: Tested for in vitro cytotoxicity against non-small cell lung cancer cell line A549/ATCC.
In the next assay the test system is Hs-578T. The assay can be described thus: Tested for in vitro cytotoxicity against breast cancer cell line Hs 578.T.
The subject of a further assay is OVCAR-4. As to the kind of experiment: Tested for in vitro cytotoxicity against ovarian cancer cell line OVCAR-4.

By GI50 is commonly meant the concentration at which growth is held to half of that of the control. Low readings indicate greater sensitivity of the cells, high ones lower sensitivity of the cells. For the molecule `COc1ccc2c3c([nH]c2c1)-c1nc2ccccc2c(=O)n1CC3`, the GI50 in the assay on NCI-H460 was 1.38 µM; in the assay on CCRF-CEM it was more than 25 µM; in the assay on 786-0, 0.31 µM; in the assay with A549, 0.75 µM; in the assay on Hs-578T, 1.59 µM; in the assay with OVCAR-4, more than 25 µM.
Take `O=c1c2ccccc2nc2n1CCc1c-2[nH]c2cc3c(cc12)OCO3`: the GI50 in the assay with NCI-H460 was 1.55 µM; in the assay on CCRF-CEM, more than 25 µM; with 786-0, 1.08 µM; in the assay with A549, more than 25 µM; with Hs-578T, 5.05 µM; in the assay on OVCAR-4 it was 1.5 µM.
As to `COc1ccc2[nH]c3c(c2c1)CCn1c-3nc2ccccc2c1=O`, the GI50 with NCI-H460, with CCRF-CEM, in the assay with 786-0, in the assay with A549, with Hs-578T and in the assay on OVCAR-4 was more than 25 µM in each case.
For `O=c1c2ccccc2nc2n1CCc1c-2[nH]c2ccccc12` [RUTAECARPINE], the GI50 was 18.9 µM in the assay with CCRF-CEM, 14.5 µM with A549, 22.6 µM in the assay with Hs-578T and 18.9 µM in the assay with OVCAR-4.
